These results are taken from patent publication US10202374B2, “6-aryl-4-phenylamino-quinazoline analogs as phosphoinositide-3-kinase inhibitors” (COUNCIL OF SCIENTIFIC & INDUSTRIAL RESEARCH, priority 2014, dated 2019).

In assay [1] the test system is A-375 (melanoma) cells. Nature of the assay: MTT cytotoxicity assay, A375. It counts as cell-based. The note with it: Homo sapiens, 48 h treatment, read-out: Anticancer activity IC50 A375. The method, then:
(§1) Compounds proposed in present invention were evaluated for their cytotoxic effect against panel of 5 cancer cell line viz. Panc-1 (pancreatic cancer), MCF-7 (breast cancer), PC-3 (prostate), HL-60 (leukemia) and A-375 (melanoma) using MTT assay. In each well of a 96-well plate, 3×10^3 cells were grown in 100 μL of medium. After 24 h, each test molecules were added to achieve a final concentration of 10 to 0.01 μmol/L, respectively. After 48 h of treatment, 20 μL of 2.5 mg/mL MTT (Organics Research, Inc.) solution in phosphate buffer saline was added to each well. […], supernatant was removed and formazan crystals were dissolved in 200 μL of DMSO. Absorbance was then measured at 570 nm using an absorbance plate reader (Bio-Rad Microplate Reader). Data are expressed as the percentage of viable cells in treated relative to non-treated conditions. Each experiment was repeated thrice and data was expressed as mean±SD of three independent experiments (Mordant, P. et al., Mol. Cancer Ther. 2010, 9, 358).
(In general: Formazan colour is commonly taken as a measure of viable cells.)

Assay [2] has as its system Panc-1 (pancreatic cancer) cells. Nature of the assay: MTT cytotoxicity assay, Panc-1. Conditions: Homo sapiens, 48 h treatment, read-out: Anticancer activity IC50 Panc-1. The assay is classed as cell-based. The method, then: as §1
Assay [3] addresses PI3K-γ (Homo sapiens, UniProt P48736). Nature of the assay: PI3K-γ assay (ADP-Glo). The assay is classed as biochemical. Conditions: for IC50: read-out: PI3K inhibition IC50 -γ; for Fold-selectivity for PI3K-α with respect to -γ: α versus γ isoform. On the technique in general: In ADP-Glo the light output rises with the ADP produced.
Method: The enzyme is assayed for 75 min after which 20 ul of ADP-Glo reagent is added. After a further incubation of 40 min, 40 ul of Kinase Detection Buffer is added. The assays are incubated for 40 min and then read on PerkinElmer Envision for 1 sec/well.
For assay [4], the system named is PC-3 (prostate cancer) cells. Put plainly: MTT cytotoxicity assay, PC-3. It counts as cell-based. Conditions: Homo sapiens, 48 h treatment, read-out: Anticancer activity IC50 PC-3. The method, then: as §1
The target of assay [5] is PI3K-α (Homo sapiens, UniProt P42336). Put plainly: PI3K-α assay (ADP-Glo). It counts as biochemical. Conditions: for inhibition at 0.5 µM / % Inhibition of PI3K-α at 0.5 μM: preliminary screening; for IC50: read-out: PI3K inhibition IC50 -α.
Sequence of PI3K-α (P42336 whole entry, canonical isoform): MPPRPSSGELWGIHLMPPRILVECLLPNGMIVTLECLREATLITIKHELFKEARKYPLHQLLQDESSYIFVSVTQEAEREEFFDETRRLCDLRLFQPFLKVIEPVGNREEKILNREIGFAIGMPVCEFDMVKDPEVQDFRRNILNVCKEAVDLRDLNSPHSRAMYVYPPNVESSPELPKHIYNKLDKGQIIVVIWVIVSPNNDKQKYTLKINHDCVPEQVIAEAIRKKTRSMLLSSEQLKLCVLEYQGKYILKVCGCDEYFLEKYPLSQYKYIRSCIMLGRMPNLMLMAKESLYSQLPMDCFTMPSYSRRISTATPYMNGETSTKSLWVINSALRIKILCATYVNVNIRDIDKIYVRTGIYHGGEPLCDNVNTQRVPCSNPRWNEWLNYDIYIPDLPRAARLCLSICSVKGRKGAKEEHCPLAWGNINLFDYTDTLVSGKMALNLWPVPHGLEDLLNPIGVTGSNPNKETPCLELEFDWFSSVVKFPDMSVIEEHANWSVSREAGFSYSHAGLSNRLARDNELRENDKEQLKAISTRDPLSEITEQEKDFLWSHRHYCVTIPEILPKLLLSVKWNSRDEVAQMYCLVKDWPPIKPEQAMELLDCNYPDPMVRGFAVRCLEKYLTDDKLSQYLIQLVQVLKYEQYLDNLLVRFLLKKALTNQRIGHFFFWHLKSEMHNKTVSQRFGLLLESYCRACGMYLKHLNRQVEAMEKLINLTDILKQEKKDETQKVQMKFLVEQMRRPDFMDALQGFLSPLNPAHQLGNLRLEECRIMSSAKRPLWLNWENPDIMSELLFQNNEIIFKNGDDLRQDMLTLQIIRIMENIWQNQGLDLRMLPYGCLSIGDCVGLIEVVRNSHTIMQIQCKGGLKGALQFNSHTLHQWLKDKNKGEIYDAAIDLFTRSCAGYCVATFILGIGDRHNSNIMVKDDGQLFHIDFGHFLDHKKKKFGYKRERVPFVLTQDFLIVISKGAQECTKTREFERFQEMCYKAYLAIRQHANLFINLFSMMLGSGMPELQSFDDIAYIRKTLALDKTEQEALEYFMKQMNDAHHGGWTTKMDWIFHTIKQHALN
Sequence of PI3K-α (P27986 whole entry partner, canonical isoform): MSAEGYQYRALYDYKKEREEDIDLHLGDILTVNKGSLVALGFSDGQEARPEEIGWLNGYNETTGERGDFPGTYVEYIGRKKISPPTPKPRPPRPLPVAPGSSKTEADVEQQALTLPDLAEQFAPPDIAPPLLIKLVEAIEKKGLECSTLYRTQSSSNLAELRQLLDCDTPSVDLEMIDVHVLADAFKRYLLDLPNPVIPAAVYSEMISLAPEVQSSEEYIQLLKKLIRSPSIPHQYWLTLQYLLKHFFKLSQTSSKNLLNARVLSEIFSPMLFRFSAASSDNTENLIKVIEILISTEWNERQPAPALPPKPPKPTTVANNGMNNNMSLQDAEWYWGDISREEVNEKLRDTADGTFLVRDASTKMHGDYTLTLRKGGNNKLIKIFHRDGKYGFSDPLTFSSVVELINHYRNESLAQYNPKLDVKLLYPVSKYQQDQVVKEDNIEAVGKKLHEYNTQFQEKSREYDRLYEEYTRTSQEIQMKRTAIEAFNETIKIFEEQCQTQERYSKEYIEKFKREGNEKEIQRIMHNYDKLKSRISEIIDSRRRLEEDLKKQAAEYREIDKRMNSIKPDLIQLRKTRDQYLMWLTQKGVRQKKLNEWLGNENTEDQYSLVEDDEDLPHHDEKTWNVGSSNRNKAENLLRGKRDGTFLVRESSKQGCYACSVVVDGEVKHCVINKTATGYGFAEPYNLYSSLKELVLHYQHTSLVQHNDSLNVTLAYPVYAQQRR
Method: The enzyme is assayed for 80 min after which 20 ul of ADP-Glo reagent is added. After a further incubation of 40 min, 40 ul of Kinase Detection Buffer is added. The assays are incubated for 40 min and then read on PerkinElmer Envision for 1 sec/well.
For assay [6], the target named is PI3K-β (Homo sapiens, UniProt P42338). Put plainly: PI3K-β assay (ADP-Glo). The assay is classed as biochemical. The note with it: for IC50: read-out: PI3K inhibition IC50 -β; for Fold-selectivity for PI3K-α with respect to -β: α versus β isoform.
Sequence of PI3K-β (P42338 whole entry, species assumed, canonical isoform): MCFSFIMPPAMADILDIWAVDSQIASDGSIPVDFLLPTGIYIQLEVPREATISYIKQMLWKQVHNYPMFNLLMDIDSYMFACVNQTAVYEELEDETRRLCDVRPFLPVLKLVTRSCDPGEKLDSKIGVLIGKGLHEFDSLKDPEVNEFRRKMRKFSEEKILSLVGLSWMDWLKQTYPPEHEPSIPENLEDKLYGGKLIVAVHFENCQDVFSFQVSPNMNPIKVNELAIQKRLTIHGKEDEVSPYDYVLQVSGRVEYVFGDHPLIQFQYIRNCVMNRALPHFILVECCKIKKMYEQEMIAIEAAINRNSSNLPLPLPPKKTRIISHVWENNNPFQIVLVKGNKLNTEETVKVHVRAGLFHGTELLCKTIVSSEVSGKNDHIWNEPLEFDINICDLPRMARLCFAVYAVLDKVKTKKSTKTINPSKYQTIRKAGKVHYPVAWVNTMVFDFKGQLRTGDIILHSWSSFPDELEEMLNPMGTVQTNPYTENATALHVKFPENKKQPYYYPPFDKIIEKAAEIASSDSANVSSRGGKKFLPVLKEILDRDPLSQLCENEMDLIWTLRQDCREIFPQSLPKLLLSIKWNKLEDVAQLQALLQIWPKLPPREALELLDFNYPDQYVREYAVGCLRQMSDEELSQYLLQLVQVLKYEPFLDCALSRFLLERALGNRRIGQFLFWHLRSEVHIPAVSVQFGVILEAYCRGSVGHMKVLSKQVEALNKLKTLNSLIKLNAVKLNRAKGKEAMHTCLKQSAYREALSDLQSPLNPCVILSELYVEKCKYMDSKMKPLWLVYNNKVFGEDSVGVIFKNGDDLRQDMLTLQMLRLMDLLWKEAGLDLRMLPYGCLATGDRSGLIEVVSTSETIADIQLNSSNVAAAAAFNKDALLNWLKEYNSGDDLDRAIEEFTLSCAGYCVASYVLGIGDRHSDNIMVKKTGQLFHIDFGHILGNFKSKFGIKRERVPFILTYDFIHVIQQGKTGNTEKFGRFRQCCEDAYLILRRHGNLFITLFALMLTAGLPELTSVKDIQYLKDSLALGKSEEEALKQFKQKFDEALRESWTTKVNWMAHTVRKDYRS
Sequence of PI3K-β (P27986 whole entry partner, species assumed, canonical isoform): as the sequence (P27986 whole entry partner, canonical isoform) above
Method: The enzyme is assayed for 60 min after which 20 ul of ADP-Glo reagent is added. After a further incubation of 40 min, 40 ul of kinase detection Buffer is added. The assays are incubated for 40 min and then read on PerkinElmer Envision for 1 sec/well.
Assay [7] deals with PI3K-δ (Homo sapiens, UniProt O00329). Put plainly: PI3K-δ assay (ADP-Glo). The assay is classed as biochemical. Conditions: for IC50: read-out: PI3K inhibition IC50 -δ; for Fold-selectivity for PI3K-α with respect to -δ: α versus δ isoform.
Sequence of PI3K-δ (O00329 whole entry, species assumed, canonical isoform): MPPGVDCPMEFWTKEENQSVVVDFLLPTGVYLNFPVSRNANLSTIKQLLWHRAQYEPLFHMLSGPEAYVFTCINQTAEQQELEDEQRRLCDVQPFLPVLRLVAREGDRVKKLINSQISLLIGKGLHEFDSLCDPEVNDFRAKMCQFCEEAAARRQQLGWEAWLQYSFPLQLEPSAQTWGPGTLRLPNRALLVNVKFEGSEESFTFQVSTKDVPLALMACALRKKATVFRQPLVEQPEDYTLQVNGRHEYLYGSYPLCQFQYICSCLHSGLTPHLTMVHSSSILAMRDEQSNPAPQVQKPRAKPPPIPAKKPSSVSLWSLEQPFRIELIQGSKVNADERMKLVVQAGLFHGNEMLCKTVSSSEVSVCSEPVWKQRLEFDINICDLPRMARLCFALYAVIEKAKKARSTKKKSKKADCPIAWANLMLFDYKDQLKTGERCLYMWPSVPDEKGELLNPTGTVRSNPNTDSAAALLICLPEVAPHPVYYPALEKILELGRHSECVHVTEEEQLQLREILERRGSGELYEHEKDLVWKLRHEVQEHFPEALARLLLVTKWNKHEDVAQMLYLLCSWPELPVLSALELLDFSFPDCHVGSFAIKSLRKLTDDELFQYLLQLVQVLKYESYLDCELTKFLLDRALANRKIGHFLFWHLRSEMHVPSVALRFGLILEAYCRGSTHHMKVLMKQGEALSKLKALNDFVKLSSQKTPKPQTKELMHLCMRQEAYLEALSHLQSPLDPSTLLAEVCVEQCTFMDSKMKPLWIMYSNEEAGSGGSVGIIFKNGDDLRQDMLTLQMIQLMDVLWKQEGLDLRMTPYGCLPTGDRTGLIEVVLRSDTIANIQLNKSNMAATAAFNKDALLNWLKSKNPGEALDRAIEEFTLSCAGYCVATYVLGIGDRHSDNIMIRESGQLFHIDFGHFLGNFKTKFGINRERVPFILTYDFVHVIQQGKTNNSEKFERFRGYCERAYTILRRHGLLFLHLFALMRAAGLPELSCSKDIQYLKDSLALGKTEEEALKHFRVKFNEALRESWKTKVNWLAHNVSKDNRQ
Sequence of PI3K-δ (P27986 whole entry partner, species assumed, canonical isoform): as the sequence (P27986 whole entry partner, canonical isoform) above
Method: Compounds proposed in present invention were evaluated for their inhibitory activity on phosphoinositide-3-kinase-alpha and other isoforms (beta, gamma and delta). […] The protocols used for these bioassays are as follows:
The enzyme is assayed for 120 min after which 20 ul of ADP-Glo reagent is added. After a further incubation of 40 min, 40 ul of Kinase Detection Buffer is added. The assays are incubated for 40 min and then read on PerkinElmer Envision for 1 sec/well.
Assay [8] relates to MCF-7 (breast cancer) cells. Nature of the assay: MTT cytotoxicity assay, MCF-7. It counts as cell-based. Conditions: Homo sapiens, MCF7, 48 h treatment, read-out: Anticancer activity IC50 MCF-7. The procedure:
as §1

In assay [9] the test system is HL-60 (leukemia) cells. Put plainly: MTT cytotoxicity assay, HL-60. The assay is classed as cell-based. The note with it: Homo sapiens, 48 h treatment, read-out: Anticancer activity IC50 HL-60. The procedure: as §1

Structures are written as SMILES. Where only a bound is given, the exact number is not on record here.

Sequence of PI3K-γ (P48736 whole entry, species assumed, canonical isoform): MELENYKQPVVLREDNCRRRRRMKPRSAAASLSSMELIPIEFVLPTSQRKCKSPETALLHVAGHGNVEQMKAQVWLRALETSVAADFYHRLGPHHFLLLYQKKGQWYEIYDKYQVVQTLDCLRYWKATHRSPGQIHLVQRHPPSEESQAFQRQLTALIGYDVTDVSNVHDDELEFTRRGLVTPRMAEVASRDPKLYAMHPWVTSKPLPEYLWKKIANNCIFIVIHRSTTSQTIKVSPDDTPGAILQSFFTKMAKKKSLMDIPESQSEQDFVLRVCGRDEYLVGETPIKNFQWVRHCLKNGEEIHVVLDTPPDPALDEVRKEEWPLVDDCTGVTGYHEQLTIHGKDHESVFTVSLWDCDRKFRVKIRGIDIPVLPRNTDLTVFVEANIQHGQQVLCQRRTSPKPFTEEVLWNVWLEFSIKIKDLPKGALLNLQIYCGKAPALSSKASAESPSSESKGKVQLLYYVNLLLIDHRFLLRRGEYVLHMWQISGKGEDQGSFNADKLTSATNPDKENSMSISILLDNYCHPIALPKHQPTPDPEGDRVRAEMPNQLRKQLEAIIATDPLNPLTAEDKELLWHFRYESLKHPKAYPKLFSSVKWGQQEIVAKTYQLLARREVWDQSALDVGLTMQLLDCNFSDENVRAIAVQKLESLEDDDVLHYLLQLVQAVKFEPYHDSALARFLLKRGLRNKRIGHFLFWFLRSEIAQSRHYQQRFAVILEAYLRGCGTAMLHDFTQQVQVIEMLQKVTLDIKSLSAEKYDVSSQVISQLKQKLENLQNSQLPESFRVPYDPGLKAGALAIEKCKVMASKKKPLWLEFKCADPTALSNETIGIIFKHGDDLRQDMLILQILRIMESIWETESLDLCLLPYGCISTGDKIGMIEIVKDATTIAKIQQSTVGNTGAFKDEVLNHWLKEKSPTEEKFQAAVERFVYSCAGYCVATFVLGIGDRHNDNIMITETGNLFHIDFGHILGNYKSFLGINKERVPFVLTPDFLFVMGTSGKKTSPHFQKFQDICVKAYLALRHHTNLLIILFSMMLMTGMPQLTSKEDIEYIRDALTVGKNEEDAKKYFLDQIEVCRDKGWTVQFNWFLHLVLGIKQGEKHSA

`C=Cc1ccc(-c2ccc3ncnc(Nc4ccc(CC#N)cc4)c3c2)cc1` [Compound 13, 6-(4-vinylphenyl)-4-(4-cyanomethyl)phenylamino quinazoline]: the IC50 in [1] is 27 µM; in assay [2] it was 32 µM; in assay [3] it was 0.52 µM; in assay [4], 34 µM; in [5], over 10 µM; in assay [6], over 10 µM. In addition, the IC50 is over 10 µM in [7], 11 µM in [8] and 16 µM in assay [9]. Also, in assay [5], the inhibition at 0.5 µM turned out to be 36.4%. In addition, the “Fold-selectivity for PI3K-α with respect to -β” value (shortened to “Fold-selectivity for PI3K-α … -β”) in assay [6] came out at 1 fold. Further, in assay [7], the “Fold-selectivity for PI3K-α with respect to -δ” value (from here on “Fold-selectivity for PI3K-α … -δ”) came to 1 fold.

For the compound `N#CCc1ccc(Nc2ncnc3ccc(-c4ccc5c(c4)OCO5)cc23)cc1` [Compound 21, 6-(benzo[d][1,3]dioxol-5-yl)-4-(4-cyanomethyl)phenylamino-quinazoline], the IC50 in assay [1] is 24 µM; in assay [2] it was 33 µM; in assay [3] it was 0.19 µM; in [4], 7 µM; in assay [5], 0.321 µM; in assay [6], over 10 µM. Moreover, the half-maximal inhibitory concentration (IC50) in assay [7] was over 10 µM; in assay [8], 34 µM; in [9], 27 µM. For the same compound, in [3], the “Fold-selectivity for PI3K-α with respect to -γ” value (“Fold-selectivity for PI3K-α … -γ” for short) is 0.6 fold. Moreover, the “% Inhibition of PI3K-α at 0.5 μM” value in assay [5] turned out to be 48.6%. This compound displayed an inhibition at 0.5 µM in assay [5] of over 40%. Further, the “Fold-selectivity for PI3K-α … -β” value in assay [6] is listed as over 31.1 fold. The “Fold-selectivity for PI3K-α … -δ” value in assay [7] is over 31.1 fold.

Consider `N#CCc1ccc(Nc2ncnc3ccc(-c4ccc5[nH]ccc5c4)cc23)cc1` [Compound 26, 6-(1H-indol-5-yl)-4-(4-cyanomethyl)phenylamino-quinazoline], for which the IC50 in assay [1] is 31 µM; in assay [2], 16 µM; in assay [3] it was 0.75 µM; in assay [4], 24 µM; in assay [5], 0.201 µM; in assay [6], over 10 µM. Also, the 50% inhibitory concentration (IC50) in [7] was over 10 µM; in [8], 7 µM; in [9], 18 µM. Further, the “Fold-selectivity for PI3K-α … -γ” value in assay [3] stood at 3.7 fold. In addition, the “% Inhibition of PI3K-α at 0.5 μM” value in [5] is 47.5%. In [5], this compound registered an inhibition at 0.5 µM of over 40%. The “Fold-selectivity for PI3K-α … -β” value in [6] is given as over 49.7 fold. Moreover, in assay [7], the “Fold-selectivity for PI3K-α … -δ” value is given as over 49.7 fold.

`N#CCc1ccc(Nc2ncnc3ccc(-c4cccc([N+](=O)[O-])c4)cc23)cc1` [Compound 11, 6-(3-nitrophenyl)-4-(4-cyanomethyl)phenylamino quinazoline]: the IC50 in assay [1] is 23 µM; in [2], 7 µM; in assay [3], 0.85 µM; in assay [4] it was 29 µM; in assay [5], 0.451 µM; in [6] it was over 10 µM. The IC50 was over 10 µM in assay [7], 12 µM in assay [8] and 15 µM in assay [9]. Also, the “Fold-selectivity for PI3K-α … -γ” value in assay [3] amounted to 1.9 fold. Besides, at 0.5 µM the inhibition in assay [5] was 38.1%. Besides, the “Fold-selectivity for PI3K-α … -β” value in assay [6] was over 22.2 fold. In addition, in assay [7], the “Fold-selectivity for PI3K-α … -δ” value is given as over 22.2 fold.

On to `N#CCc1ccc(Nc2ncnc3ccc(-c4ccncc4)cc23)cc1` [Compound 28, 6-(pyridin-4-yl)-4-(4-cyanomethyl)phenylamino-quinazoline], for which the concentration for half-maximal inhibition (IC50) in assay [1] is 35 µM; in assay [2], 39 µM; in assay [3] it was 0.36 µM; in [4], 76 µM; in assay [5], 0.704 µM; in assay [6], over 10 µM. Also, the IC50 in assay [7] is over 10 µM; in assay [8], 32 µM; in assay [9] it was 32 µM. Moreover, the “Fold-selectivity for PI3K-α … -γ” value in assay [3] came to 0.5 fold. For the same compound, the “% Inhibition of PI3K-α at 0.5 μM” value in assay [5] amounted to 45.6%. The inhibition at 0.5 µM in [5] was over 40%. Moreover, the “Fold-selectivity for PI3K-α … -β” value in assay [6] is over 14.2 fold. For the same compound, the “Fold-selectivity for PI3K-α … -δ” value in assay [7] is listed as over 14.2 fold.

For `CC(=O)c1ccc(-c2ccc3ncnc(Nc4ccc(CC#N)cc4)c3c2)cc1` [Compound 9, 6-(4-acetylphenyl)-4-(4-cyanomethyl)phenylamino quinazoline], the IC50 is 32 µM in assay [1]; 13 µM in assay [2]; 0.15 µM in [3]; 24 µM in [4]; 0.27 µM in assay [5]; over 10 µM in assay [6]. For the same compound, the IC50 in [7] is over 10 µM; in assay [8], 45 µM; in assay [9], 28 µM. Moreover, in assay [3], the “Fold-selectivity for PI3K-α … -γ” value was 0.5 fold. This compound had an inhibition at 0.5 µM in assay [5] of 44%. Also, the “Fold-selectivity for PI3K-α … -β” value in assay [6] is given as over 37 fold. In addition, in [7], the “Fold-selectivity for PI3K-α … -δ” value is recorded as over 37 fold.

Take `CC(=O)Nc1cccc(-c2ccc3ncnc(Nc4ccc(CC#N)cc4)c3c2)c1` [Compound 15, 6-(3-acetylaminophenyl)-4-(4-cyanomethyl)phenylamino quinazoline]: the IC50 in assay [1] is 38 µM; in [2], 38 µM; in assay [3] it was 6.95 µM; in assay [4], 26 µM; in assay [5], 0.475 µM; in [6] it was over 10 µM. Moreover, the IC50 in assay [7] is over 10 µM; in assay [8] it was 14 µM; in assay [9], 23 µM. The “Fold-selectivity for PI3K-α … -γ” value in [3] is 14.6 fold. Moreover, the inhibition at 0.5 µM in [5] worked out at 36.8%. For the same compound, in [6], the “Fold-selectivity for PI3K-α … -β” value was over 21 fold. Also, in assay [7], the “Fold-selectivity for PI3K-α … -δ” value is on record as over 21 fold.

A word on the IC50: it is the concentration that inhibits the measured activity by half. As a reminder, the inhibition is the drop in the measured response relative to a control, in per cent.
